Tests used:
[1] = Arrhenius equation; cited from earlier work
[2] = tested on: E0771 mouse breast cancer cells; format: cell-based
Description: (§1) B16F10 mouse skin melanoma cells were maintained in DMEM (Gibco) supplemented with 10% fetal bovine serum (FBS, Corning), penicillin and streptomycin (Thermo Fisher). B16F10 cells were a generous gift from Dr. Edward Roy at the University of Illinois at Urbana-Champaign. E0771 mouse breast cancer cells (CH3 BioSystems) were maintained in RPMI-1640 (Gibco) supplemented with 10% FBS (Corning), penicillin and streptomycin (Thermo Fisher). For free-radical challenge experiments, 0.05% trypsin dissociated cells were counted and 1×10^4 cells per well were seeded in cell culture-treated 6 well plates (Thermo Fisher) 24 hours before the start of the experiment. […] Cells were then incubated up to 72 hours without media change and counted every 24 hours. […] Staining solution was then replaced by PBS and the cells were imaged on an Olympus inverted fluorescence microscope with 4× objective and FITC filter set. […] Live cells positively stained by Calcein-AM were counted using FIJI (NIH) and averaged over 4 counting fields per well at each time point (FIG. 12). For each image, only the green channel was analyzed. […] Using “Analyze Particles,” the distinct white areas from size 20 (to exclude small artifacts and debris) to size infinity were counted. Cell counts were then compiled and analyzed in Microsoft Excel. […]

[3] = tested on: B16F10 mouse skin melanoma cells; format: cell-based
Description: as §1

SMILES | activation energy Ea of azo group decomposition [1] [kcal/mol] | pre-exponential factor A of azo group decomposition [1] [s⁻¹] | lethal dosage (positive control) [2] [µM] | lethal dosage (positive control) [3] [µM]
CC(C#N)(CCC(=O)O)N=NC(C)(C#N)CCC(=O)O (stereo not shown) [ACVA, 4,4′-azobis (4-cyanovaleric acid)] | 31.76 | 6.21e+15 | – | –
OO [H2O2, hydrogen peroxide] | – | – | ~30 | ~50

— US12201643B2, “Mechanochemical dynamic for focal cancer treatment” (THE BOARD OF TRUSTEES OF THE UNIVERSITY OF ILLINOIS, priority 2021, dated 2025)
